Results as given in patent US20250382273A1 (INSTITUT NATIONAL DE LA SANTE ET DE LA RECHERCHE MEDICALE, priority 2022, published 2025).

These compounds were tested on M. tuberculosis H37Rv_DdnL49P_gfp. Conditions: in combination with pretomanid, unit inferred; read-out: average EC50 H37Rv_DdnL49P_gfp.
Type: cell-based, Mycobacterium tuberculosis

`O=C(Nc1nc2ccc(Oc3ccc(F)cc3)cc2s1)[C@@H]1C2C=CC(C2)[C@@H]1C(=O)O` (stereo partly drawn) [Example 21, 3-[[6-(4-fluorophenoxy)-1,3-benzothiazol-2-yl]carbamoyl]bicyclo[2.2.1]hept-5-ene-2-carboxylic acid] and `O=C(Nc1nc2ccc(Oc3ccnc(C(F)(F)F)c3)cc2s1)[C@@H]1C2C=CC(C2)[C@@H]1C(=O)O` (stereo partly drawn) [Example 32, 3-[[6-[[2-(trifluoromethyl)-4-pyridyl]oxy]-1,3-benzothiazol-2-yl]carbamoyl]bicyclo[2.2.1]hept-5-ene-2-carboxylic acid] are within 1.5-fold of each other in EC50: 400 nM for the first, 320 nM for the second.

Same assay, conditions: read-out: EC50 H37Rv_DdnL49P_gfp

`O=C(Nc1nc2ccc(-c3ccncc3)cc2s1)[C@@H]1C2C=CC(C2)[C@@H]1C(=O)O` (stereo partly drawn) [Example 64, 3-[[6-(4-pyridyl)-1,3-benzothiazol-2-yl]carbamoyl]bicyclo[2.2.1]hept-5-ene-2-carboxylic acid] and `O=C(Nc1nc2ccc(Oc3ccncc3)cc2s1)[C@@H]1C2C=CC(C2)[C@@H]1C(=O)O` (stereo partly drawn) [Example 24, 3-[[6-(4-pyridyloxy)-1,3-benzothiazol-2-yl]carbamoyl]bicyclo[2.2.1]hept-5-ene-2-carboxylic acid] fall in the same range of EC50: 5000 to 10000 nM for the first, 5000 to 10000 nM for the second.

Compared with `O=C(O)C1C2C=CC(C2)C1C(=O)Nc1nc2ccc([N+](=O)[O-])cc2s1` (stereo not drawn) [Example 38, 3-[(6-nitro-1,3-benzothiazol-2-yl)carbamoyl]bicyclo[2.2.1]hept-5-ene-2-carboxylic acid], `CCc1ccc2nc(NC(=O)[C@@H]3C4C=CC(C4)[C@@H]3C(=O)O)sc2c1` (stereo partly drawn) [Example 11, 3-[(6-ethyl-1,3-benzothiazol-2-yl)carbamoyl]bicyclo[2.2.1]hept-5-ene-2-carboxylic acid] is lower in EC50: 5000 to 10000 nM for the first, 1000 to 5000 nM for the second. The second is the more potent here.

First: O=C(Nc1nc2ccc(-c3ccc(Cl)cc3)cc2s1)[C@@H]1C2C=CC(C2)[C@@H]1C(=O)O (stereo partly drawn) [Example 55, 3-[[6-(4-chlorophenyl)-1,3-benzothiazol-2-yl]carbamoyl]bicyclo[2.2.1]hept-5-ene-2-carboxylic acid]
Second: O=C(Nc1nc2ccc(-c3ccc(Cl)c(Cl)c3)cc2s1)[C@@H]1C2C=CC(C2)[C@@H]1C(=O)O (stereo partly drawn) [Example 56, 3-[[6-(3,4-dichlorophenyl)-1,3-benzothiazol-2-yl]carbamoyl]bicycle [2.2.1]hept-5-ene-2-carboxylic acid]
The EC50 of the first is lower: < 1000 nM for the first, 1000 to 5000 nM for the second.

`O=C(Nc1nc2ccc(Oc3ccc(F)cc3)cc2s1)[C@@H]1C2C=CC(C2)[C@@H]1C(=O)O` (stereo partly drawn) [Example 21, 3-[[6-(4-fluorophenoxy)-1,3-benzothiazol-2-yl]carbamoyl]bicyclo[2.2.1]hept-5-ene-2-carboxylic acid] and `O=C(Nc1nc2ccc(Oc3ccnc(C(F)(F)F)c3)cc2s1)[C@@H]1C2C=CC(C2)[C@@H]1C(=O)O` (stereo partly drawn) [Example 32, 3-[[6-[[2-(trifluoromethyl)-4-pyridyl]oxy]-1,3-benzothiazol-2-yl]carbamoyl]bicyclo[2.2.1]hept-5-ene-2-carboxylic acid] cannot be ordered by EC50: < 1000 nM for the first, < 1000 nM for the second.

First: O=C(Nc1nc2ccc(Nc3cncc(C(F)(F)F)c3)cc2s1)[C@@H]1C2C=CC(C2)[C@@H]1C(=O)O (stereo partly drawn) [Example 91, 3-[[6-[[5-(trifluoromethyl)-3-pyridyl]amino]-1,3-benzothiazol-2-yl]carbamoyl]bicyclo[2.2.1]hept-5-ene-2-carboxylic acid]
Second: O=C(Nc1nc2ccc(Nc3cc(F)ccn3)cc2s1)[C@@H]1C2C=CC(C2)[C@@H]1C(=O)O (stereo partly drawn) [Example 85, 3-[[6-[(4-fluoro-2-pyridyl)amino]-1,3-benzothiazol-2-yl]carbamoyl]bicyclo[2.2.1]hept-5-ene-2-carboxylic acid]
The EC50 of the first is higher: 5000 to 10000 nM for the first, < 1000 nM for the second. The second is the more potent here.

`O=C1[C@@H]2C3C=CC(C3)[C@@H]2C(=O)N1c1nc2ccc(Nc3cccc(C(F)(F)F)n3)cc2s1` [Example 97, 4-[6-[[6-(trifluoromethyl)-2-pyridyl]amino]-1,3-benzothiazol-2-yl]-4-azatricyclo[5.2.1.02,6]dec-8-ene-3,5-dione] and `C#CCOc1ccc(-c2ccc3nc(N4C(=O)[C@@H]5[C@H](C4=O)[C@@H]4C=C[C@H]5C4)sc3c2)cc1` [Example 71, (1R,2S,6R,7S)-4-[6-(4-prop-2-ynoxyphenyl)-1,3-benzothiazol-2-yl]-4-azatricyclo[5.2.1.02,6]dec-8-ene-3,5-dione] cannot be ordered by EC50: < 1000 nM for the first, < 1000 nM for the second.

`O=C(Nc1nc2ccc(-c3ccc4ncccc4c3)cc2s1)[C@@H]1C2C=CC(C2)[C@@H]1C(=O)O` (stereo partly drawn) [Example 81, 3-[[6-(6-quinolyl)-1,3-benzothiazol-2-yl]carbamoyl]bicyclo[2.2.1]hept-5-ene-2-carboxylic acid] was tested, and the EC50 was 1000 to 5000 nM.
